Consider one compound from US20060257388A1, “Drug delivery systems for stabilized formulations of alpha adrenergic receptor antagonists and the uses thereof” (priority 2005, published 2006).

Counter-ions that a name gives are not always drawn.

Data set [1] in a line: Narrow-range pH-stability profiling at 60° C. (HPLC). In kind it is physicochemical. The conditions noted are these: 50 mM sodium phosphate, FIG. 2. As for the experimental part: (§1) The drug is monitored at a detection wavelength of 232 nm.
All samples were stored in the dark. […] All samples were analyzed without dilution.
The phosphate buffers were prepared as previously described. The samples were analyzed by HPLC for phentolamine concentration and purity at an initial time point and after 2, 7 and 14 days of storage at 60° C. Measurement of sample pH was done after HPLC analysis.
In order to precisely define the most favorable pH, a stronger stressing condition was needed to generate a greater extent of degradation in the lower pH region. For this study, the incubation condition was shifted from 40° C. to 60° C. Since the extent of degradation after fourteen (14) days was still less than twenty percent (20%) in most samples, zero-order rate kinetics was used for the degradation curves (concentration versus time). The calculated rate constant was plotted against pH to provide the narrow-range pH-stability profile.

Data set [2] can be described thus: Effect of buffer concentration on stability, sodium acetate pH 3.5, 60° C. (HPLC, pH). The format is physicochemical. Here is the method:
as §1
Tightly sealed glass vials containing the test solutions were placed in an oven at 40° C. or 60° C. All samples were stored in the dark. Aliquots were removed at designated time points for HPLC analysis and pH measurement. All samples were analyzed without dilution.
In conjunction with HPLC analysis, pH was measured. The measurement was performed using the same samples as used for the HPLC analysis. The pH meter was calibrated using pH 4.00 and 7.00 buffer standards prior to each measurement.
Samples were incubated at 60° C. with scheduled testing performed at day 0, 2, 7, and 14. The various buffer concentrations were prepared by diluting the 50 mM buffer with water and re-examining the pH value to determine if the pH 3.5 was constant. Measurements of pH were performed after HPLC analysis of the samples.

The nature of data set [3]: Effect of additives on stability, 60° C. (HPLC). In kind it is physicochemical. Particulars: for Phentolamine Concentration: 10 mM Sodium Acetate, pH 3.5, 60° C.
Excerpt: as §1
The additives in this study are selected from five groups of injectable excipients namely, tonicity modifiers (NaCl and d-mannitol), metal chelators (EDTA), antioxidants (sodium metabisulfite), complexing agents α-cyclodextrin and niacinamide) and solvents (glycerol and polypropylene glycol). A tonicity modifier is required for adjusting the phentolamine mesylate solution to isotonic. […] Complexing agents were applied in the hope that a possible formation of an inclusion complex (by α-cyclodextrin) or stacking complex (by niacinamide) with phentolamine would modify the rate of hydrolytic degradation of the drug substance. Solvents were added to reduce the dielectric constant of the vehicle and were intended to slow the rate of degradation due to solvent polarity.
The pH value of the solutions was readjusted to pH 3.5, as required. The 25% glycerol (25 g in 100 ml total volume with water) and 25% polypropylene glycol (25 g in 100 ml total volume with water) solutions had their buffer strength adjusted by addition of acetic acid followed by addition of 2 N NaOH for pH adjustment to pH 3.5 followed by addition of the drug to 0.1 mg/ml.
All samples were placed in 10 ml glass serum vials, stoppered with rubber closures with an inert coating (Dalkyo Flurotec by WEST Pharmaceutical), and sealed with flip-top caps after sampling. Vials were placed at 60° C. after the weights were recorded.
Sampling occurred at the initial time point and on days 2, 7, and 14. Vials were weighed, sampled, sealed, re-weighed, and replaced under the selected storage condition until testing at the subsequent time point. Records indicate no significant weight loss during storage.

Data set [4] concerns healthy adult volunteers. Nature of the data set: Reversal of soft-tissue anesthesia after inferior alveolar nerve block, proof-of-principle trial (Example 3). In kind it is in vivo, human. The conditions noted are these: 0.2 mg in 1.8 ml. Here is the method:
The objective of this proof-of-principle trial was to evaluate the feasibility of reversing soft-tissue anesthesia by pharmacologically blocking the effects of epinephrine. […] Subjects self-evaluated the return of normal sensation in their lip, chin, tongue, nose, and teeth by palpations at 5-minute intervals starting at 5 minutes before the study drug injection and continuing for approximately 4-5 hours. To avoid biased responding, subjects were told that they could not leave the clinic for 8 hours after the last injection. Responses for soft tissues were categorized as (1) numb (no feeling), (2) feeling of pins and needles, or (3) normal sensation. Responses for teeth were (1) numb (no feeling) or (2) normal sensation. Safety was evaluated through reports of adverse events, measurement of vital signs and two-lead electrocardiograms before, during, and after the injections of anesthetic and study drug, and through pain assessments using visual analog scales.

Data set [5] has as its system healthy adult volunteer subjects. Nature of the data set: Dose range study, reversal of local anesthesia after mandibular nerve block (Example 4). The format is in vivo, human. An excerpt:
The objectives of this study were to evaluate the safety and efficacy of a range of doses of phentolamine in reversing local anesthesia after a mandibular nerve block. […] Subjects palpated their lower lip, chin, tongue, and teeth every five minutes for the next five hours after injections.

The test system is the same in data set [6]. Nature of the data set: Dose range study, reversal of local anesthesia after maxillary infiltration (Example 5). In kind it is in vivo, human. Here is the method:
The objectives of this study were to evaluate the safety and efficacy of a range of doses of phentolamine in reversing local anesthesia after a maxillary infiltration. Four groups of eight healthy adult volunteer subjects were given an infiltration of the lateral incisor using one 1.8 ml cartridge of lidocaine 2% with epinephrine 1:100,000. […] Subjects palpated their upper lip, nose, and teeth every five minutes for the next five hours after injections.

Data set [7] has as its system patients. Particulars: 0.5-1.5 mg, patients pretreated with lignocaine admixed with epinephrine; cited from earlier work.
The subject of data set [8] is patients. Particulars: systemic doses, package insert; cited from earlier work.
Data set [9] relates to human. The conditions noted are these: solution containing 0.05 mg/ml; cited from earlier work.
[10] abbreviates: 0.02 mg, 0.06 mg, 0.4 mg in 1.8 ml.
Setting [11] is: 0.02 mg, 0.08 mg, 0.4 mg in 1.8 ml.

Consider `Cc1ccc(N(CC2=NCCN2)c2cccc(O)c2)cc1` [Phentolamine Mesylate], for which the “pH at which phentolamine was most stable” value in data set [1] stood at 3.5. Further, the “Phentolamine Concentration” value amounted to 101 µg/mL in data set [2] (50 mM Sodium Acetate pH 3.5, 60° C., Day 2); 126 µg/mL in data set [3] (Additive Glycerol, 25% w/v, Day 0); 123 µg/mL in data set [3] (Additive Glycerol, 25% w/v, Day 2); 115 µg/mL in [3] (Additive Glycerol, 25% w/v, Day 14); 118 µg/mL in data set [3] (Additive Polypropylene glycol, 25% w/v, Day 0); 121 µg/mL in data set [3] (Additive Polypropylene glycol, 25% w/v, Day 2). Besides, the “Phentolamine Concentration” value stood at 113 µg/mL in data set [3] (Additive Polypropylene glycol, 25% w/v, Day 7); 101 µg/mL in data set [3] (Additive Sodium metabisulfite, 0.5 mg/ml, Day 2); 102 µg/mL in data set [3] (Additive α-Cyclodextrin, 50 mg/ml, Day 0). In addition, in data set [2] (5, 10 and 50 mM sodium acetate), the “rate of degradation versus un-buffered control (in words)” value was “comparable and was an improvement over the un-buffered control”. Also, the “impact of additives on stability (in words)” value in data set [3] (d-Mannitol and disodium EDTA) is given as “improve stability based on the rate constant or to exhibit no negative impact based on purity values”. Moreover, in data set [4], the adverse effects result is “Adverse effects were few and no differences were noted between the active and placebo groups”. Further, the electrocardiogram result in [4], in [5] (setting [10]) and in [6] (setting [11]) was “no abnormalities in the electrocardiogram” throughout. The “duration of anesthesia versus saline (in words)” value in data set [4] (60 minutes after inferior alveolar nerve block with 2% lidocaine, 1:100,000 epinephrine, lip, chin, tongue, nose, teeth) was “significantly (p<0.01) reduced the duration of anesthesia in each tissue”. Further, the adverse events entry in data set [5] (setting [10]) is “Adverse events were few and no differences were noted between the active and placebo groups”; in data set [6] (setting [11]), “Adverse events were few and no differences were noted between the active and placebo groups”. The “duration of anesthesia versus saline placebo (in words)” value in [5] (all doses tested (0.02 mg, 0.06 mg, 0.4 mg in 1.8 ml), 60 minutes after inferior alveolar nerve block, lower lip, chin, tongue, teeth) is listed as “significantly (p<0.05) reduced the duration of anesthesia in each measured tissue”; in data set [6] (all doses tested (0.02 mg, 0.08 mg, 0.4 mg in 1.8 ml), 40 minutes after lateral incisor infiltration, upper lip, nose, teeth), “significantly (p<0.01) reduced the duration of anesthesia in each measured tissue”. In addition, the “duration of anesthesia (in words)” value in data set [7] is on record as “reduction in the duration of anesthesia with increasing amounts”. In addition, in data set [8], the side effect warning result was “Myocardial infarction, cerebrovascular spasm, and cerebrovascular occlusion have been reported”. For the same compound, the “reversal of local anesthetic effect (in words)” value in [9] is “rapidly reverse the effect of a local anesthetic”.
